T/C data for 11 compounds are collected here from PubChem BioAssay AID248 (DTP/NCI, 2004).

In this assay the test system is L1210 leukemia ip in BDF1 mice, survival T/C. As to the kind of experiment: NCI In Vivo Anticancer Drug Screen. Data for tumor model L1210 Leukemia (intraperitoneal) in B6D2F1 (BDF1) mice. The conditions noted are these: higher = longer survival. In outline:
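Tumor was transplanted into mice, which were then dosed with test compound or vehicle alone. Survival was recorded for each group, and the treated figure was expressed relative to the control figure.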

[1] abbreviates: endpoint: mean survival time, dose: 100.0 mg/kg/injection, schedule: Q01DX009 (ip), vehicle: Klucel (hydroxypropylcellulose) (HPC).
[2] abbreviates: endpoint: mean survival time, dose: 100.0 mg/kg/injection, schedule: Q04DX002 (ip), vehicle: Klucel (hydroxypropylcellulose) (HPC).
[3] abbreviates: endpoint: mean survival time, dose: 100.0 mg/kg/injection, schedule: Q04DX003 (ip), vehicle: Klucel (hydroxypropylcellulose) (HPC).
The mark [4] stands for this setting: endpoint: mean survival time, dose: 200.0 mg/kg/injection, schedule: Q01DX009 (ip), vehicle: Klucel (hydroxypropylcellulose) (HPC).
Where [5] appears, read: endpoint: mean survival time, dose: 200.0 mg/kg/injection, schedule: Q04DX003 (ip), vehicle: Klucel (hydroxypropylcellulose) (HPC).
Setting [6] is: endpoint: mean survival time, dose: 400.0 mg/kg/injection, schedule: Q04DX003 (ip), vehicle: Klucel (hydroxypropylcellulose) (HPC).
Setting [7] is: endpoint: mean survival time, dose: 100.0 mg/kg/injection, schedule: Q01DX009 (ip), vehicle: carboxymethylcellulose (CMC).
[8] abbreviates: endpoint: mean survival time, dose: 50.0 mg/kg/injection, schedule: Q04DX003 (ip), vehicle: saline.

Each structure is given as a SMILES string. “And” between values parts separate entries of the source, which are not always exact repeats. Equal values may be shown once. Toxic doses and inconclusive results are not listed.

As for `O=C(Cc1c(F)c(F)c(F)c(F)c1F)Nc1ccc(-c2nc3ccccc3s2)cc1`, the T/C was 87 % of control (endpoint: mean survival time, dose: 100.0 mg/kg/injection, schedule: Q01DX001 (ip), vehicle: Klucel (hydroxypropylcellulose) (HPC)); 115 % of control under setting [1]; 104 % of control and 115 % of control under setting [2]; 95 % of control under setting [3]; 90 % of control (endpoint: mean survival time, dose: 200.0 mg/kg/injection, schedule: Q01DX001 (ip), vehicle: Klucel (hydroxypropylcellulose) (HPC)); 105 % of control under setting [4]. Also, the T/C reads like this: (endpoint: mean survival time, dose: 200.0 mg/kg/injection, schedule: Q04DX002 (ip), vehicle: Klucel (hydroxypropylcellulose) (HPC)) 93 % of control and 95 % of control; under setting [5], 97 % of control; (endpoint: mean survival time, dose: 400.0 mg/kg/injection, schedule: Q04DX002 (ip), vehicle: Klucel (hydroxypropylcellulose) (HPC)) 95 % of control and 96 % of control; under setting [6], 97 % of control.

Consider `CSc1n[nH]c(Cl)n1`, for which the T/C is 98 % of control and 103 % of control (endpoint: mean survival time, dose: 25.0 mg/kg/injection, schedule: Q04DX002 (ip), vehicle: saline with Tween-80); 102 % of control and 106 % of control (endpoint: mean survival time, dose: 50.0 mg/kg/injection, schedule: Q04DX002 (ip), vehicle: saline with Tween-80); 103 % of control and 107 % of control and 114 % of control (endpoint: mean survival time, dose: 100.0 mg/kg/injection, schedule: Q04DX002 (ip), vehicle: saline with Tween-80); 104 % of control and 113 % of control and 90 % of control (endpoint: mean survival time, dose: 200.0 mg/kg/injection, schedule: Q04DX002 (ip), vehicle: saline with Tween-80); 93 % of control (endpoint: mean survival time, dose: 400.0 mg/kg/injection, schedule: Q04DX002 (ip), vehicle: saline with Tween-80).

In the case of `COC(=O)c1ccc(=O)n(C/C=C(\C)CCC2OC2(C)C)c1` (stereo unspecified), the T/C (endpoint: mean survival time, dose: 100.0 mg/kg/injection, schedule: Q04DX003 (ip), vehicle: water) was 100 % of control; the T/C (endpoint: mean survival time, dose: 200.0 mg/kg/injection, schedule: Q04DX003 (ip), vehicle: water) is 104 % of control; the T/C (endpoint: mean survival time, dose: 400.0 mg/kg/injection, schedule: Q04DX003 (ip), vehicle: water) was 102 % of control.

`O=c1sc(N=Nc2ccccc2)nn1-c1ccccc1`: the T/C (endpoint: mean survival time, dose: 50.0 mg/kg/injection, schedule: Q01DX009 (ip), vehicle: saline) was 91 % of control; the T/C (endpoint: mean survival time, dose: 100.0 mg/kg/injection, schedule: Q01DX009 (ip), vehicle: saline) is 88 % of control; the T/C (endpoint: mean survival time, dose: 200.0 mg/kg/injection, schedule: Q01DX009 (ip), vehicle: saline) is 93 % of control.

As to `Cc1nc(Br)c(Br)n1C`, the T/C is, setting by setting: (endpoint: mean survival time, dose: 25.0 mg/kg/injection, schedule: Q04DX002 (ip), vehicle: Klucel (hydroxypropylcellulose) (HPC)) 110 % of control; (endpoint: mean survival time, dose: 50.0 mg/kg/injection, schedule: Q01DX009 (ip), vehicle: carboxymethylcellulose (CMC)) 103 % of control and 104 % of control; (endpoint: mean survival time, dose: 50.0 mg/kg/injection, schedule: Q04DX002 (ip), vehicle: Klucel (hydroxypropylcellulose) (HPC)) 92 % of control; under setting [7], 96 % of control and 118 % of control; under setting [2], 100 % of control and 91 % of control; (endpoint: mean survival time, dose: 100.0 mg/kg/injection, schedule: Q04DX002 (ip), vehicle: carboxymethylcellulose (CMC)) 105 % of control. The T/C by setting is: (endpoint: mean survival time, dose: 100.0 mg/kg/injection, schedule: Q04DX003 (ip), vehicle: carboxymethylcellulose (CMC)) 91 % of control; (endpoint: mean survival time, dose: 200.0 mg/kg/injection, schedule: Q01DX009 (ip), vehicle: carboxymethylcellulose (CMC)) 96 % of control and 110 % of control; (endpoint: mean survival time, dose: 200.0 mg/kg/injection, schedule: Q04DX002 (ip), vehicle: carboxymethylcellulose (CMC)) 97 % of control and 105 % of control; (endpoint: mean survival time, dose: 200.0 mg/kg/injection, schedule: Q04DX003 (ip), vehicle: carboxymethylcellulose (CMC)) 104 % of control.

As to `O=Nc1ccc(C=C2C(=O)C=CC2=O)cc1`, the T/C is, setting by setting: (endpoint: mean survival time, dose: 75.0 mg/kg/injection, schedule: Q01DX001 (ip), vehicle: saline) 100 % of control; (endpoint: mean survival time, dose: 150.0 mg/kg/injection, schedule: Q01DX001 (ip), vehicle: saline) 94 % of control; (endpoint: mean survival time, dose: 300.0 mg/kg/injection, schedule: Q01DX001 (ip), vehicle: saline) 101 % of control.

With `CCCCCN(C)/N=N/c1nc[nH]c1C(N)=O`, the T/C (endpoint: mean survival time, dose: 7.5 mg/kg/injection, schedule: Q01DX Z (ip), vehicle: carboxymethylcellulose (CMC)) was 102 % of control; the T/C (endpoint: mean survival time, dose: 10.0 mg/kg/injection, schedule: Q01DX Z (ip), vehicle: carboxymethylcellulose (CMC)) was 110 % of control; the T/C (endpoint: mean survival time, dose: 11.0 mg/kg/injection, schedule: Q01DX009 (ip), vehicle: carboxymethylcellulose (CMC)) was 101 % of control; the T/C (endpoint: mean survival time, dose: 15.0 mg/kg/injection, schedule: Q01DX Z (ip), vehicle: carboxymethylcellulose (CMC)) is 119 % of control; the T/C (endpoint: mean survival time, dose: 16.75 mg/kg/injection, schedule: Q01DX009 (ip), vehicle: carboxymethylcellulose (CMC)) is 100 % of control; the T/C (endpoint: mean survival time, dose: 25.0 mg/kg/injection, schedule: Q01DX009 (ip), vehicle: carboxymethylcellulose (CMC)) was 118 % of control. Also, the T/C (endpoint: mean survival time, dose: 37.5 mg/kg/injection, schedule: Q01DX009 (ip), vehicle: carboxymethylcellulose (CMC)) was 124 % of control; the T/C (endpoint: mean survival time, dose: 75.0 mg/kg/injection, schedule: Q01DX Z (ip), vehicle: carboxymethylcellulose (CMC)) was 117 % of control; the T/C (endpoint: mean survival time, dose: 100.0 mg/kg/injection, schedule: Q01DX001 (ip), vehicle: carboxymethylcellulose (CMC)) was 119 % of control; the T/C under setting [7] is 154 % of control; the T/C (endpoint: mean survival time, dose: 120.0 mg/kg/injection, schedule: Q01DX015 (ip), vehicle: carboxymethylcellulose (CMC)) was 96 % of control; the T/C (endpoint: mean survival time, dose: 178.0 mg/kg/injection, schedule: Q01DX001 (ip), vehicle: carboxymethylcellulose (CMC)) is 108 % of control. For the same compound, the T/C by setting is: (endpoint: mean survival time, dose: 200.0 mg/kg/injection, schedule: Q01DX001 (ip), vehicle: carboxymethylcellulose (CMC)) 152 % of control; (endpoint: mean survival time, dose: 267.0 mg/kg/injection, schedule: Q01DX001 (ip), vehicle: carboxymethylcellulose (CMC)) 117 % of control; (endpoint: mean survival time, dose: 600.0 mg/kg/injection, schedule: Q01DX001 (ip), vehicle: carboxymethylcellulose (CMC)) 123 % of control; (endpoint: median survival time, dose: 12.5 mg/kg/injection, schedule: Q01DX011 (ip), vehicle: steriod suspending solution) 112 % of control; (endpoint: median survival time, dose: 25.0 mg/kg/injection, schedule: Q01DX011 (ip), vehicle: steriod suspending solution) 112 % of control; (endpoint: median survival time, dose: 100.0 mg/kg/injection, schedule: Q01DX011 (ip), vehicle: steriod suspending solution) 218 % of control.

Turning to `Nc1nc(N)nc(-c2ccccc2NC(=O)c2ccccc2[N+](=O)[O-])n1`, the T/C is, setting by setting: under setting [1], 91 % of control; under setting [3], 101 % of control; under setting [4], 96 % of control; under setting [5], 105 % of control; (endpoint: mean survival time, dose: 400.0 mg/kg/injection, schedule: Q01DX009 (ip), vehicle: Klucel (hydroxypropylcellulose) (HPC)) 90 % of control; under setting [6], 100 % of control.

Turning to `N#CC(C#N)=C/C=C/c1cccc([N+](=O)[O-])c1`, the T/C (endpoint: mean survival time, dose: 38.0 mg/kg/injection, schedule: Q01DX009 (ip), vehicle: saline) is 102 % of control.

For `CCN(CC)CC(=O)NCC(CCN1CCCCC1)(Cc1cccc2ccccc12)C(C)C` (stereo unspecified), the T/C is 106 % of control (endpoint: mean survival time, dose: 12.5 mg/kg/injection, schedule: Q04DX003 (ip), vehicle: saline); 98 % of control (endpoint: mean survival time, dose: 25.0 mg/kg/injection, schedule: Q04DX003 (ip), vehicle: saline); 97 % of control under setting [8].

Turning to `O=C1C=C(Nc2ccc(O)cc2)c2ccccc2C1=O`, the T/C is 107 % of control (endpoint: mean survival time, dose: 3.12 mg/kg/injection, schedule: Q01DX009 (ip), vehicle: saline); 102 % of control (endpoint: mean survival time, dose: 6.25 mg/kg/injection, schedule: Q01DX009 (ip), vehicle: saline); 103 % of control (endpoint: mean survival time, dose: 12.5 mg/kg/injection, schedule: Q01DX009 (ip), vehicle: saline); 91 % of control (endpoint: mean survival time, dose: 25.0 mg/kg/injection, schedule: Q01DX009 (ip), vehicle: saline); 103 % of control under setting [8]; 93 % of control (endpoint: mean survival time, dose: 75.0 mg/kg/injection, schedule: Q01DX001 (ip), vehicle: carboxymethylcellulose (CMC)). Also, the T/C is, setting by setting: (endpoint: mean survival time, dose: 100.0 mg/kg/injection, schedule: Q04DX003 (ip), vehicle: saline) 95 % of control; (endpoint: mean survival time, dose: 150.0 mg/kg/injection, schedule: Q01DX001 (ip), vehicle: carboxymethylcellulose (CMC)) 100 % of control; (endpoint: mean survival time, dose: 300.0 mg/kg/injection, schedule: Q01DX001 (ip), vehicle: carboxymethylcellulose (CMC)) 90 % of control.
